In patent publication US11396505B2, “Inhibitors of CaMKK2 and uses of same” (New York University, priority 2019, dated 2022):

Tests used:
CaMKK2 [1] = biological target: T1, CaMKK2 (Homo sapiens, UniProt Q96RR4); assay: CaMKK1/2 biochemical assay, 32P radiometric kinase assay (CaMKK2); settings: for inhibition at 0.2 µM: 0.2 μM compound, read-out: CaMKK2 % inhibition @ concentrations shown, 0.2 μM; for inhibition at 0.5 µM: 0.5 μM compound, read-out: CaMKK2 % inhibition @ concentrations shown, 0.5 μM; for inhibition at 10 µM: 10 μM compound, read-out: CaMKK2 % inhibition @ concentrations shown, 10 μM
Procedure: (§1) The following is an example of a CaMKK1/2-biochemical assay. Compounds were tested for CaMKK1/2 inhibition using a ^32P radiometric kinase assay as follows: A freshly prepared kinase reaction buffer (20 mM Hepes (pH 7.5), 10 mM MgCl2, 1 mM EGTA, 0.02% Brij35, 0.02 mg/ml BSA, 0.1 mM Na3VO4, 2 mM DTT, 1% DMSO) was treated with Myelin Basic Protein (final concentration=20 μM), CaCl2) (final concentration=1.5 mM), Calmodulin (final concentration=0.96 μM) and either CaMKK2 (final reaction concentration=120 nM) or CaMKK1 (final reaction concentration=150 nM) and gently mixed. Compounds were added as aliquots from 10 mM DMSO stock solutions such that the final compound concentration in the assay was either 10 μM, 0.5 μM or 0.2 μM. This mixture was allowed to incubate for 20 minutes at room temperature. ^32P-ATP (specific activity 10 μCi/μL) was added and the mixture was allowed to incubate for 2 hours at room temperature. The reaction mixture was spotted onto P81 ion exchange paper. The kinase activity was detected by the filter binding method.

CaMKK1 = CaMKK1 (Homo sapiens, UniProt Q8N5S9); assay: CaMKK1/2 biochemical assay, 32P radiometric kinase assay (CaMKK1)
Procedure: as §1

CaMKK2 [2] = biological target: T1, CaMKK2; assay: CaMKK1/2 biochemical assay, 32P radiometric kinase assay (CaMKK2)
[3] = despite achieving high plasma concentrations; cited from earlier work
[4] = cited from earlier work
ArH receptor = biological target: T2, ArH receptor (Homo sapiens, UniProt P35869); settings: cited from earlier work
T2 sequence (P35869 11-848): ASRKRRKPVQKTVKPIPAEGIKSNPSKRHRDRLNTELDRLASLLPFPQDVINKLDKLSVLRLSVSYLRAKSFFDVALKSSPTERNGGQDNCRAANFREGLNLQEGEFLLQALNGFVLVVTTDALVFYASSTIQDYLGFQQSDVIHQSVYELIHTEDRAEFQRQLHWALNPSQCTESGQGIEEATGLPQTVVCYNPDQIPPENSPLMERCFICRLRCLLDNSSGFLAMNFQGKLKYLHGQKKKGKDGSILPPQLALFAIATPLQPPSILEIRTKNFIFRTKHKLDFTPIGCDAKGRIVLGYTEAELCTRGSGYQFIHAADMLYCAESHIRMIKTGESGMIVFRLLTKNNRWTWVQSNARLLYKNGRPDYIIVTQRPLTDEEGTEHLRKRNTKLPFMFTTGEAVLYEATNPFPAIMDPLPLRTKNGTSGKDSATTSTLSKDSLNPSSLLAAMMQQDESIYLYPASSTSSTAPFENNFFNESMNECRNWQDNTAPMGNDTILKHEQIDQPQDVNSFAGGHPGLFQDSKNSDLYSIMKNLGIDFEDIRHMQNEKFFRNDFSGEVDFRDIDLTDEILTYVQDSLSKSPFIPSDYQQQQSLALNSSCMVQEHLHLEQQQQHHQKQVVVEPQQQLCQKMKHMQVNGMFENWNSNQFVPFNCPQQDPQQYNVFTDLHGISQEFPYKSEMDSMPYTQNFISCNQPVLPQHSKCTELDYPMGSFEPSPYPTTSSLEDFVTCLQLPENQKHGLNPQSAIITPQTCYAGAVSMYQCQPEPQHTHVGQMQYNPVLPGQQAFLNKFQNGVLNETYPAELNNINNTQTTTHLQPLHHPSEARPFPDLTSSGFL

[5] = cited from earlier work; remark: listed apart in the source

| inhibition at 0.2 µM (CaMKK2 [1]) | IC50 (CaMKK2 [2]) | Biochemical Data CaMKK2, inh @ 0.2 μM (CaMKK2 [1]) | Biochemical Data CaMKK1, inh @ 0.2 μM (CaMKK1) | SMILES | also measured |
| --- | --- | --- | --- | --- | --- |
| 80% | 70 nM |  |  | O=C1OCCN1c1ccc2[nH]nc(-c3cc4ccccc4[nH]3)c2c1 [Example 3, 3-(3-(1H-indol-2-yl)-1H-indazol-5-yl)oxazolidin-2-one] | inhibition at 0.5 µM (CaMKK2 [1]): 94%; inhibition at 10 µM (CaMKK2 [1]): 100%; IC50 (CaMKK1): 141 nM |
| 55% | 190 nM |  |  | O=C1OCCN1c1ccc2[nH]nc(/C=C/c3ccccn3)c2c1 [Example 4, (E)-3-(3-(2-(pyridin-2-yl)vinyl)-1H-indazol-5-yl)oxazolidin-2-one] | inhibition at 0.5 µM (CaMKK2 [1]): 81%; inhibition at 10 µM (CaMKK2 [1]): 98% |
| 41% |  | 41% inh @ 0.2 μM | <5% inh @ 0.2 μM | O=C1OCCN1c1ccc2[nH]nc(-c3ccc(Cl)cc3)c2c1 [Example 24, 3-(3-(4-chlorophenyl)-1H-indazol-5-yl)oxazolidin-2-one] |  |
| 36% |  | 36% inh @ 0.2 μM | <5% inh @ 0.2 μM | O=C1OCCN1c1ccc2[nH]nc(-c3cccc(-c4ccccc4)c3)c2c1 [Example 26, 3-(3-([1,1′-biphenyl]-3-yl)-1H-indazol-5-yl)oxazolidin-2-one] |  |
| 37% |  | 37% inh @ 0.2 μM | <5% inh @ 0.2 μM | O=C1OCCCN1c1ccc2[nH]nc(-c3cc4ccccc4[nH]3)c2c1 [Example 40, 3-(3-(1H-indol-2-yl)-1H-indazol-5-yl)-1,3-oxazinan-2-one] |  |

Second part, the molecule before the results:

| SMILES | inhibition at 0.2 µM (CaMKK2 [1]) | IC50 (CaMKK2 [2]) | Biochemical Data CaMKK2, inh @ 0.2 μM (CaMKK2 [1]) | Biochemical Data CaMKK1, inh @ 0.2 μM (CaMKK1) | also measured |
| --- | --- | --- | --- | --- | --- |
| COc1ccc(/C=C/c2n[nH]c3ccc(N4CCOC4=O)cc23)cc1 [Example 31, (E)-3-(3-(4-methoxystyryl)-1H-indazol-5-yl)oxazolidin-2-one] | 81% | 33 nM |  |  | IC50 (CaMKK1): 536 nM |
| O=C1CCCCN1c1ccc2[nH]nc(-c3cc4ccccc4[nH]3)c2c1 [Example 41, 1-(3-(1H-indol-2-yl)-1H-indazol-5-yl)piperidin-2-one] | 12% |  | 12% inh @ 0.2 μM | <5% inh @ 0.2 μM |  |
| COc1cccc2cc(-c3nc([C@H]4CC[C@H](C(=O)O)CC4)n4ncnc(N)c34)[nH]c12 [OSI-027] |  |  |  |  | tissue and tumor penetration [3]: poor tissue and tumor penetration |
| O=C(O)c1ccc2c3c1cccc3c(=O)n1c3ccccc3nc21 [STO-609] |  |  |  |  | brain entry ([4]; 9.4 mg/kg ip dose): fails to enter the brain; plasma concentrations ([4]; 9.4 mg/kg ip dose): > 30 µM; tissue Cmax values ([4]; tissue penetration, 9.4 mg/kg ip): ≤ 1 µM; elimination completed in ([4]; tissues): ≤ 8 h (h); agonist of the ArH receptor (ArH receptor): 43 nM; permeability [5]: poor permeability |
